# Test results taken from patent publication US20070117770A1, “Human ribosomal DNA (rDNA) and ribosomal RNA (rRNA) nucleic acids and uses thereof” (Cylene Pharmaceuticals, Inc., priority 2005, published 2007).
# Assays:
# [1] = target: ASK1(h) (Homo sapiens, UniProt Q99683); test: Protein kinase inhibition assay; assay type: biochemical; conditions: read-out: percent residual activity of ASK1(h)
# Experimental: (§1) Certain compounds were tested for activity in protein kinase inhibition assays. All substrates were dissolved and diluted to working stocks in de-ionized water, apart from histone H1 (10× working stock in 20 mM MOPS pH 7.0), PDKtide (10× working stock in 50 mM Tris pH 7.0) ATF2 (which is typically stored at a 20× working stock in 50 mM Tris pH 7.5, 150 mM NaCl, 0.1 mM EGTA, 0.03% Brij-35, 50% glycerol, 1 mM benzamidine, 0.2 mM PMSF and 0.1% R-mercaptoethanol), KKLNRTLSFAEPG (SEQ ID NO:203) and RRRLSFAEPG (SEQ ID NO:204) (50 mM HEPES pH 7.4) and GGEEEEYFELVKKKK (SEQ ID NO:205) (20 mM MOPS pH 7.0). All kinases were pre-diluted to a 10× working concentration prior to addition into the assay. The composition of the dilution buffer for each kinase is detailed below.
# (§2) In a final reaction volume of 25 μl, ASK1 (h) (5-10 mU) is incubated with 8 mM MOPS pH 7.0, 0.2 mM EDTA, 0.33 mg/ml myelin basic protein, 10 mM MgAcetate and [gamma-33P-ATP] (specific activity approx. 500 cpm/pmol, concentration as required). The reaction is initiated by the addition of the MgATP mix. After incubation for 40 minutes at room temperature, the reaction is stopped by the addition of 5 μl of a 3% phosphoric acid solution. 10 μl of the reaction is then spotted onto a P30 filtermat and washed three times for 5 minutes in 75 mM phosphoric acid and once in methanol prior to drying and scintillation counting.
# [2] = target: PKA(b) (Bos taurus, UniProt P00517); test: Protein kinase inhibition assay; assay type: biochemical, bovine; conditions: read-out: percent residual activity of PKA(b)
# Experimental: as §1
# as §2, with “PKA (b)” for “ASK1 (h)”, “30 μM LRRASLG (SEQ ID NO:209) (Kemptide),” for “0.33 mg/ml myelin basic protein,”, “[y-33P-ATP]” for “[gamma-33P-ATP]”, “50” for “75”
# [3] = test system: cellular DNA or RNA in A549 cells; test: Cellular target study, RNase A or DNase I treatment of compound-treated cells; assay type: cell-based; conditions: 2 uM
# Experimental: To determine the cellular target of rRNA-interacting compounds, a study was conducted to ascertain whether the compounds could select for cellular DNA or RNA. In these studies A549 cells were plated in borosilicate chamber slides. The cells were treated with 2 uM compound A-1 the next day for one hour or two hours, washed with PBS, fixed for 10 min in 4% paraformaldehyde, permeabilized for 5 min in 1:1 ethanol:acetone mix, treated with 2.5 ug/mL of RNase A or 340 Kunitz units/mL of DNase I and observed under a fluorescence microscope (Olympus) in the Ex360 nm/Em548 nm channel at 600× magnification. […] Accordingly, a compound tested in the assay interacted with RNA preferentially over DNA in cells.
# [4] = test system: cells; test: Cell cycle progression (propidium iodide, flow cytometry); assay type: cell-based; conditions: various concentrations, varying amounts of time
# Experimental: (§3) In assays for determining cell cycle progression effects, cells were harvested and single cell suspensions were prepared in buffer (e.g. PBS +2% FBS; PBS+0.1% BSA). Cells were washed twice and resuspend at 1-2×10^6 cells/ml. One ml cells was aliquotted in a 15 ml polypropylene, V-bottomed tube and 3 ml cold absolute ethanol was added. Cells were fixed for at least one hour at 4° C. Fixed cells were washed twice in PBS and one ml of propidium iodide staining solution (3.8 mM sodium citrate, 50 ug/ml propidium iodide in PBS) was added to each cell pellet and mixed well. Fifty microliters of an RNase A stock solution ([…] RNase A boiled for 5 minutes and aliquoted and stored frozen at −20° C.) was added and the resulting mixture was incubated for 3 hours at 4° C. Samples were stored at 4° C. until analyzed by flow cytometry.
# [5] = test system: DAOY medulloblastoma cells (p53−); test: as above; assay type: cell-based
# Experimental: as §3
# [6] = test system: HCT-116 colon carcinoma cells (p53+); test: as above; assay type: cell-based; conditions: HCT-116 (p53+)
# Experimental: as §3
# [7] = test system: MiaPaCa pancreatic cells; test: as above; assay type: cell-based
# Experimental: as §3
# Chain of ASK1(h) (Q99683 whole entry): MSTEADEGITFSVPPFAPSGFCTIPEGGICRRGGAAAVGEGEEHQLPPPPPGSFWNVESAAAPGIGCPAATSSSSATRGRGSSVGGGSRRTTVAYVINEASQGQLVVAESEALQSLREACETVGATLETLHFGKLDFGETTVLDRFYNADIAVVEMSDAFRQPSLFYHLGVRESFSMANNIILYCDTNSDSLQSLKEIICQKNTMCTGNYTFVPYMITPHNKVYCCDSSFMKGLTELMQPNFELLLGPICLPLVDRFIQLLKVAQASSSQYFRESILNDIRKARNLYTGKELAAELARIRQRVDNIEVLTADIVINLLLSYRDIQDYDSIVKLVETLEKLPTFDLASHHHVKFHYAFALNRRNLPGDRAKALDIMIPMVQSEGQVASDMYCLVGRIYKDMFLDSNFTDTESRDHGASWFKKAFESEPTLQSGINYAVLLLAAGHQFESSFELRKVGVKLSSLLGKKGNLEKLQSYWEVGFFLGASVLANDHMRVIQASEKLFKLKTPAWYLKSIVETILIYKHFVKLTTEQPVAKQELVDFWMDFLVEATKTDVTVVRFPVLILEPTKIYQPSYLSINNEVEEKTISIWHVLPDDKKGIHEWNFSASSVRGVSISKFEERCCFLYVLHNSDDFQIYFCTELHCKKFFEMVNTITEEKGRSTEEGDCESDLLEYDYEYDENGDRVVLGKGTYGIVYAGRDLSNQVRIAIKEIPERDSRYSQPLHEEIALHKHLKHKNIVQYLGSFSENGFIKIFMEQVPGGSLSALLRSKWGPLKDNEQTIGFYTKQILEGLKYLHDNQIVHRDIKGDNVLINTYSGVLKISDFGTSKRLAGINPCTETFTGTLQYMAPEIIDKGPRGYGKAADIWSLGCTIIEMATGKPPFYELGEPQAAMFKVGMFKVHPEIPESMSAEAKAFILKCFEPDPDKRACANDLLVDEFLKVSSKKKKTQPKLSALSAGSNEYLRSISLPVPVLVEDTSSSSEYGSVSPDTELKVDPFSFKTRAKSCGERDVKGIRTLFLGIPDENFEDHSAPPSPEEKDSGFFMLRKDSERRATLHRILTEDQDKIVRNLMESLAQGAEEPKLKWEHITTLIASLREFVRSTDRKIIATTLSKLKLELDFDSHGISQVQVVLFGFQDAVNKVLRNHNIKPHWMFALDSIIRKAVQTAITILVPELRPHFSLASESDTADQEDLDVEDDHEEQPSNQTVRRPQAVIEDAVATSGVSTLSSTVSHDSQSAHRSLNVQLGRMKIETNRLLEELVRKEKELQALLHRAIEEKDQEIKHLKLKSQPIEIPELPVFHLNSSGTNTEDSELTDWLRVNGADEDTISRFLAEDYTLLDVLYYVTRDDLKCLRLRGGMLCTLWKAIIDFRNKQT
Compound,remaining activity at 2.5 µM [1] [%],remaining activity at 2.5 µM [2] [%],effect of RNase treatment on nucleolar staining by the drug ([3]; 2.5 ug/mL RNase A),effect of DNase I treatment on compound localization ([3]; 340 Kunitz units/mL DNase I),effect on the cell cycle [4],cell cycle arrest [5],cell cycle arrest [6],cell cycle arrest [7]
CN1CCCC1CCNC(=O)c1cn2c3c(c(N4CCC(c5cnccn5)C4)c(F)cc3c1=O)Oc1cc3ccccc3cc1-2 (stereo not shown) [Compound A-1],98,99,significantly reduced nucleolar staining,minimal effect,little or no affect on the cell cycle,,,
CC(=O)N1CCN(c2ccc3c(=O)c(C(=O)NCCN4CCCC4)c4n(C)c5ccccc5n4c3n2)CC1 [Compound B-1],110,96,,,,arrested primarily in the S phase with some G2 arrest as well,arrested in G1 and G2 phases of the cell cycle,arrested primarily in the S phase with some G2 arrest as well
